Here are results for six molecules from BindingDB's records for doi:10.1021/cb800120t (deCODE Chemistry Inc, 2008).

In this assay the target is T1, m7GpppX diphosphatase (Homo sapiens, UniProt Q96C86).
T1 sequence (Q96C86 whole entry): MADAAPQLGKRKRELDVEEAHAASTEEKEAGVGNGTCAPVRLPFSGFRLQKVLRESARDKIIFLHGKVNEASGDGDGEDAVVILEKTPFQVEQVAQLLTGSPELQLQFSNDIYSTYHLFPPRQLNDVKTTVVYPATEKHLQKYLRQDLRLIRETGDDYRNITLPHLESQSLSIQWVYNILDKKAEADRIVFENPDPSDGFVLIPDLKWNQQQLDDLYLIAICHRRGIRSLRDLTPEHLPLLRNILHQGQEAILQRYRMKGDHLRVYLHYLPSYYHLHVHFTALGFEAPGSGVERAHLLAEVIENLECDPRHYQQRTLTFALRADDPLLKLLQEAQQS
The assay is described as follows: Biochemical Assay. An excerpt:
In vitro biochemical assay using scavenger decapping enzyme (DcpS) as a target and cell based assay using SMN2 b-lactamase NSC-34 cell reporter gene.
Consider `CC(=O)Nc1nc(CN2CCC(COc3cccc4nc(N)nc(N)c34)CC2)cs1` [D156676], for which the midpoint of the response, the EC50, lay at 2.54 µM and the IC50 is 0.339 µM.
Take `Cn1ccnc1CN1CCC(COc2cccc3nc(N)nc(N)c23)CC1` [D157555]: the EC50 came out at 0.108 µM and 0.00938 µM corresponded to half-maximal inhibition (IC50).
As for `Nc1nc(N)c2c(COc3ccccc3I)cccc2n1` [D153215], a half-maximal effect (EC50) was put at 0.243 µM.
Take `Nc1nc(N)c2c(OCC3CCN(c4ccccc4Cl)CC3)cccc2n1` [D158885]: the EC50 was 0.795 µM and the IC50 was found to be 0.101 µM.
With `Nc1nc(N)c2c(OCC3CCN(CC(F)(F)F)CC3)cccc2n1` [D158963], the concentration giving a half-maximal response (EC50) is 0.223 µM and half-maximal inhibition (IC50) required 0.0234 µM.
With `Nc1nc(N)c2c(OCC3CCN(CC4CCNCC4)CC3)cccc2n1` [D157554], the EC50 is 0.921 µM.
